Laboratory results from US20210038577A1, “THIOREDOXIN REDUCTASE INHIBITORS FOR USE IN THE TREATMENT OF CANCER” (Cinda Pharma AB, priority 2018, published 2021).

How the values were obtained:
[1] = tested on: Tregs in TM00098 patient-derived xenografts; test: Tumor infiltrated Treg levels by flow cytometry, TM00098 PDX in Hu-CD34-NSG mice; assay type: in vivo; conditions: day 41, both donors, versus vehicle / other treatment
Procedure: Female NSG mice were implanted with human CD34+ hematopoietic stem cells from multiple donors and the level of human CD45+ cells were measured in the peripheral blood 12 weeks post engraftment. Mice with >25% human CD45+ cells in the peripheral blood were determined to have a humanized immune system (Hu-CD34-NSG™) mice and were enrolled into the study. The Hu-CD34-NSG mice were implanted with TM00098 patient-derived xenografts (PDX) subcutaneously on the right flank. The TM00098 PDX cancer cells originate from a primary tumor of a patient suffering from a grade 3 TNBC invasive ductal carcinoma. […] Tumor volume was measured using a digital caliper two times a week for the duration of the study. […] Cell populations was determined by electronic gating (P1=total leukocytes) on the basis of forward versus side scatter. […] The percentage of Tregs of CD45+ cells were calculated. […] Statistical significance (p<0.05) was determined using a Mann-Whitney test.

[2] = tested on: immune cells isolated from human blood donors (neutrophils, PBMC, monocytes, CD8+, CD4+, Tregs); test: Viability of isolated immune cells (MTT assay); assay type: cell-based; conditions: 24 h, up to 33 μM
Procedure: Viability of neutrophils after treatment with OT-1096 for 24 h was assessed using donated blood from a healthy volunteer (HBsAg, HIV I&II negative), (Blood collection date: 1 Jun. 2017) where neutrophils were isolated using dextran sedimentation followed by hypotonic lysis and final isolation by Histopaque 1077 (Sigma-Aldrich). Viability was assessed using an MTT assay.
Viability of PBMC (peripheral blood mononuclear cells) after treatment with OT-1096 for 24 h was assessed using donated blood from two different donors. Donor-1, a healthy volunteer (HBsAg, HIV I&II negative), (Blood collection date: 1 Jun. 2017). […] Viability was assessed using an MTT assay.
Viability of monocytes after treatment with OT-1096 for 24 h was assessed using donated blood from a healthy volunteer (HBsAg, HIV I&II negative), (Blood collection date: 8 Jun. 2017) where monocytes was isolated by Histopaque 1077 (Sigma-Aldrich) followed by purification with MiniMACS system of ‘Miltenyi Biotec’ using CD14 microbeads (Cat No. 130-050-201). Viability was assessed using an MTT assay. […]
Viability of CD4+ cells after treatment with OT-1096 for 24 h was assessed using donated blood from a healthy volunteer (HBsAg, HIV I&II negative) where CD4+ cells were isolated by Histopaque 1077 (Sigma-Aldrich) followed by purification with MiniMACS system of ‘Miltenyi Biotec’ using CD4+ T Cell Isolation Reagent (Cat No. 130-096-533). […]

With CCCCCCCCS(=O)(=O)c1nc(OC)ccc1[N+](=O)[O-] [OT-1096, 6-methoxy-3-nitro-2-(octylsulfonyl)pyridine] the “levels of tumor infiltrated Tregs (% Tregs of CD45+ cells)” value [1] was “decreased” and the “cytotoxicity in isolated immune cell populations” value [2] was “No (or low) cytotoxicity”.
